From ChEMBL document CHEMBL6120985, “Discovery of a potent PARP1 PROTAC as a chemosensitizer for the treatment of colorectal cancer” (Eur J Med Chem, 2025)
Calls of active or inactive are those of the source. The calls are words filed in the database; no cut-off is given here.

Tests used:
HCT-116 [1] = assay: Synergistic antiproliferative activity against human HCT-116 cells assessed as combination index at 0.5 uM measured after 72 hrs in presence of 1.25 nM of SN-38 by CCK-8 method; assay type: functional
HCT-116 [2] = assay: Synergistic antiproliferative activity against human HCT-116 cells assessed as combination index at 1 uM measured after 72 hrs in presence of 2.5 nM of SN-38 by CCK-8 method; assay type: functional
HCT-116 [3] = assay: Synergistic antiproliferative activity against human HCT-116 cells assessed as combination index at 4 uM measured after 72 hrs in presence of 2.5 nM of SN-38 by CCK-8 method; assay type: functional
HCT-116 [4] = assay: Effect on Ku70 protein level in human HCT-116 cells at 1 uM in presence of SN-38 by Western blot analysis; assay type: functional, cell-based
HCT-116 [5] = assay: Synergistic antiproliferative activity against human HCT-116 cells assessed as combination index at 0.5 uM measured after 72 hrs in presence of 0.625 nM of SN-38 by CCK-8 method; assay type: functional
HCT-116 [6] = assay: Synergistic antiproliferative activity against human HCT-116 cells assessed as combination index at 0.5 uM measured after 72 hrs in presence of 2.5 nM of SN-38 by CCK-8 method; assay type: functional
HCT-116 [7] = assay: Induction of apoptosis in human HCT-116 cells assessed as late apoptotic cells at 1 uM measured after 72 hrs in presence of SN-38 by annexin V/FITC and PI staining based flow cytometry analysis (reference value: 6.80%); assay type: functional
[8] = biological target: T1, Protein cereblon/Poly [ADP-ribose] polymerase 1 (Homo sapiens, UniProt P09874+Q96SW2); assay: PROTAC activity at CRBN/PARP1 in human HCT-116 cells assessed as degradation of PARP1 at 1 uM in presence of MLN4924; assay type: cell-based
Target sequence in this assay (P09874 2-1014 limits assumed): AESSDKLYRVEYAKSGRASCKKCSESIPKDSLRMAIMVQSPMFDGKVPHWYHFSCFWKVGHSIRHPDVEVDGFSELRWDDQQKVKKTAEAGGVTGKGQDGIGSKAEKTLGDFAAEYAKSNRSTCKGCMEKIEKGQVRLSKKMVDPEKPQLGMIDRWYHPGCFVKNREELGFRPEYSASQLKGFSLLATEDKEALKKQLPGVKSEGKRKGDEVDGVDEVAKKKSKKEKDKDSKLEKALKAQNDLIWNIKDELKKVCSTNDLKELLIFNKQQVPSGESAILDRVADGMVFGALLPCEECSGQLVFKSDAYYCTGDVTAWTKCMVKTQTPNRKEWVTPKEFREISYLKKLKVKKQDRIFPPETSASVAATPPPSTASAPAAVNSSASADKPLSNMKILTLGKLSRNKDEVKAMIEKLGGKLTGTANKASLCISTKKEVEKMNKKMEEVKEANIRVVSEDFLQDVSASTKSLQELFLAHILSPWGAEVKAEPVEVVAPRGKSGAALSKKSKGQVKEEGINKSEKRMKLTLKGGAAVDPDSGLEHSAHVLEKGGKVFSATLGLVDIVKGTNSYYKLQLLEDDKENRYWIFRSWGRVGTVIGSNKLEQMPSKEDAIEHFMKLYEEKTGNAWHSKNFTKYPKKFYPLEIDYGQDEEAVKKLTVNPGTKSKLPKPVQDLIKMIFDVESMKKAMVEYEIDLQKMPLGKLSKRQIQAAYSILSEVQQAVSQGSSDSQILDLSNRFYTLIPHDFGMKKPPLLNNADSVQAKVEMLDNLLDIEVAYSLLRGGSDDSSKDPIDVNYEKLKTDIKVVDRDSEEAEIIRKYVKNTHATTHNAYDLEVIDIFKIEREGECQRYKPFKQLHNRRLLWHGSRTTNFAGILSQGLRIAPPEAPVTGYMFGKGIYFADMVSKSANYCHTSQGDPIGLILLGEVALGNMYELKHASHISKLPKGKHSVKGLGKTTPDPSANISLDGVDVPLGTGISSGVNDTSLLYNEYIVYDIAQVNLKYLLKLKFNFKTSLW
Target sequence in this assay (Q96SW2 whole entry partner): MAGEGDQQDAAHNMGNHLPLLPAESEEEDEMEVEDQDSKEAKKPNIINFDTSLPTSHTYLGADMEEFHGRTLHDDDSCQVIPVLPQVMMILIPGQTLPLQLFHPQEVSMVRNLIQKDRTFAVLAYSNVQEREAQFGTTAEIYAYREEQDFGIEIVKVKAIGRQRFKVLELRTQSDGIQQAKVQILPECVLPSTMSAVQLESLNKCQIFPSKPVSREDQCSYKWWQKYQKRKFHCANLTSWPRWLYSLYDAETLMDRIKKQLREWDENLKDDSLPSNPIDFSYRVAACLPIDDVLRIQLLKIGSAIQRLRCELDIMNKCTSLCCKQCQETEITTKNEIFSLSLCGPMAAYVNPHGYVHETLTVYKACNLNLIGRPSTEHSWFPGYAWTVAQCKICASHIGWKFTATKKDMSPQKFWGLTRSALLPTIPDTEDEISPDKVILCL

HCT-116 [9] = assay: Upregulation of CHK1 level in human HCT-116 cells at 1 uM in presence of SN-38 by Western blot analysis; assay type: functional, cell-based
HCT-116 [10] = assay: Synergistic antiproliferative activity against human HCT-116 cells assessed as combination index at 0.5 uM measured after 72 hrs in presence of 5 nM of SN-38 by CCK-8 method; assay type: functional
HCT-116 [11] = assay: Synergistic antiproliferative activity against human HCT-116 cells assessed as combination index at 4 uM measured after 72 hrs in presence of 10 nM of SN-38 by CCK-8 method; assay type: functional
[12] = biological target: T1, Protein cereblon/Poly [ADP-ribose] polymerase 1; assay: PROTAC activity at CRBN/PARP1 in human HCT-116 cells assessed as decrease in PARP1 level at 1 uM measured after 4 hrs; assay type: cell-based
Target sequence in this assay (P09874 2-1014 limits assumed): as the sequence (P09874 2-1014 limits assumed) above
Target sequence in this assay (Q96SW2 whole entry partner): as the sequence (Q96SW2 whole entry partner) above

HCT-116 [13] = assay: Effect on Rad51 protein level in human HCT-116 cells at 1 uM in presence of SN-38 by Western blot analysis; assay type: functional, cell-based
HCT-116 [14] = assay: Upregulation of ATP5PD level in human HCT-116 cells at 1 uM in presence of SN-38 by KEGG enrichment analysis; assay type: functional, cell-based
[15] = biological target: T1, Protein cereblon/Poly [ADP-ribose] polymerase 1; assay: PROTAC activity at CRBN/PARP1 in human RKO cells assessed as degradation of PARP1 measured after 24 hrs; assay type: cell-based
Target sequence in this assay (P09874 whole entry): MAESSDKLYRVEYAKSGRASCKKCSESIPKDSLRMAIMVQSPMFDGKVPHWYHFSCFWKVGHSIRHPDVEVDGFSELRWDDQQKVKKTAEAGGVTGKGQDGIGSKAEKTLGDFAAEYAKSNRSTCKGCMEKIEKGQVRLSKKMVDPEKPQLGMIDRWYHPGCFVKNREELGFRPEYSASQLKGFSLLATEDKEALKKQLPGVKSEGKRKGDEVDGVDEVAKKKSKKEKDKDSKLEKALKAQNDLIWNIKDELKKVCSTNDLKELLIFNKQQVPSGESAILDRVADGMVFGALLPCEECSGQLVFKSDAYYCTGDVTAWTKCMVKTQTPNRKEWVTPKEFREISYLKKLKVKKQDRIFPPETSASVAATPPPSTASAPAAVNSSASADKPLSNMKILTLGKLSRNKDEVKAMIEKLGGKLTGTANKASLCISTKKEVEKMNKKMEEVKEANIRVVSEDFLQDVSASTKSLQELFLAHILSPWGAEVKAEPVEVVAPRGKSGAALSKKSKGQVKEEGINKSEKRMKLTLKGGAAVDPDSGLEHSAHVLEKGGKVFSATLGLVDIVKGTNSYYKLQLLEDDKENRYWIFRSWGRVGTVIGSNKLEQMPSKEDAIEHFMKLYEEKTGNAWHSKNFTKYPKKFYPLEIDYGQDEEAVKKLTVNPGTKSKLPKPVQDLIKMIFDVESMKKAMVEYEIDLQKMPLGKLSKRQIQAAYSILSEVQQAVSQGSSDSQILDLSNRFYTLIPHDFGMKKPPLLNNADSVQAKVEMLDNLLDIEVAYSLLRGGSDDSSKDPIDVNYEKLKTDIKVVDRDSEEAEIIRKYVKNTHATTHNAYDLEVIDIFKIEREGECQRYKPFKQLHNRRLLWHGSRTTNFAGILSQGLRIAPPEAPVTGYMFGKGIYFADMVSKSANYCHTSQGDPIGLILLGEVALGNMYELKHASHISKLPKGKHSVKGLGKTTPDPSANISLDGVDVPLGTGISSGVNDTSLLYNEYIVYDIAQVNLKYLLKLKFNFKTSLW
Target sequence in this assay (Q96SW2 whole entry): as the sequence (Q96SW2 whole entry partner) above

[16] = biological target: Protein cereblon/Poly [ADP-ribose] polymerase 2 (Homo sapiens, UniProt Q9UGN5+Q96SW2); assay: PROTAC activity at CRBN/PARP2 in human HCT-116 cells assessed as maximum degradation of PARP2 relative to control; assay type: cell-based
HCT-116 [17] = assay: Synergistic antiproliferative activity against human HCT-116 cells assessed as combination index at 1 uM measured after 72 hrs in presence of 5 nM of SN-38 by CCK-8 method; assay type: functional
HCT-116 [18] = assay: Antagonistic antiproliferative activity against human HCT-116 cells assessed as combination index at 1 uM measured after 72 hrs in presence of 0.625 nM of SN-38 by CCK-8 method; assay type: functional
[19] = biological target: T1, Protein cereblon/Poly [ADP-ribose] polymerase 1; assay: PROTAC activity at CRBN/PARP1 in human HCT-116 cells assessed as degradation of PARP1 at 1 uM in presence of MG132; assay type: cell-based
Target sequence in this assay (P09874 2-1014 limits assumed): as the sequence (P09874 2-1014 limits assumed) above
Target sequence in this assay (Q96SW2 whole entry partner): as the sequence (Q96SW2 whole entry partner) above

[20] = biological target: T1, Protein cereblon/Poly [ADP-ribose] polymerase 1; assay: PROTAC activity at CRBN/PARP1 in human HCT-116 cells assessed as maximum degradation of PARP1 relative to control; assay type: cell-based
Target sequence in this assay (P09874 2-1014 limits assumed): as the sequence (P09874 2-1014 limits assumed) above
Target sequence in this assay (Q96SW2 whole entry partner): as the sequence (Q96SW2 whole entry partner) above

HCT-116 [21] = assay: Downregulation of HSPA2 level in human HCT-116 cells at 1 uM in presence of SN-38 by KEGG enrichment analysis; assay type: functional, cell-based
HCT-116 [22] = assay: Upregulation of HMCN1 level in human HCT-116 cells at 1 uM in presence of SN-38 by KEGG enrichment analysis; assay type: functional, cell-based
HCT-116 [23] = assay: Induction of apoptosis in human HCT-116 cells assessed as necrotic cells at 1 uM measured after 72 hrs by annexin V/FITC and PI staining based flow cytometry analysis (reference value: 0.16%); assay type: functional
HCT-116 [24] = assay: Synergistic antiproliferative activity against human HCT-116 cells assessed as combination index at 0.5 uM measured after 72 hrs in presence of 10 nM of SN-38 by CCK-8 method; assay type: functional
HCT-116 [25] = assay: Antagonistic antiproliferative activity against human HCT-116 cells assessed as combination index at 2 uM measured after 72 hrs in presence of 1.25 nM of SN-38 by CCK-8 method; assay type: functional

Protein cereblon/Poly [ADP-ribose] polymerase 2, sequence (Q96SW2 whole entry, looked up): as the sequence (Q96SW2 whole entry partner) above
Protein cereblon/Poly [ADP-ribose] polymerase 2, sequence (Q9UGN5 whole entry, looked up): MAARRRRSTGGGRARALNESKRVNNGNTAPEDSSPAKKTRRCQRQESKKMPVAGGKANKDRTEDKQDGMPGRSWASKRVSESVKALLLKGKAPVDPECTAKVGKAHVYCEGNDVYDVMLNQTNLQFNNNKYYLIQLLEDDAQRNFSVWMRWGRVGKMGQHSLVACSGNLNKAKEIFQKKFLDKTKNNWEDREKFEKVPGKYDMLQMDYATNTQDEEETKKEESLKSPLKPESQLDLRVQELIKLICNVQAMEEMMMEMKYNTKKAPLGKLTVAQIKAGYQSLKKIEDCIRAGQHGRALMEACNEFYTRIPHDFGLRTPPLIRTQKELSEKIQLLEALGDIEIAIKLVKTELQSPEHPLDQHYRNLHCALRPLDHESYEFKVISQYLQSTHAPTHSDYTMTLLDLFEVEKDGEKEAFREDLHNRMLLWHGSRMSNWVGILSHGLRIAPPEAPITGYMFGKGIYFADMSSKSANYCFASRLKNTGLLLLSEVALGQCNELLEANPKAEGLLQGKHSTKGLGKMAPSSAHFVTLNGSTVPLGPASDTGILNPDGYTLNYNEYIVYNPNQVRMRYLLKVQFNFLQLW

`NC(=O)c1cccc2cn(-c3ccc([C@@H]4CCCN(CCC5CCN(CCC6CCN(CC7CCN(c8ccc9c(c8)C(=O)N(C8CCC(=O)NC8=O)C9=O)CC7)CC6)CC5)C4)cc3)nc12` (stereo not given in full) was tested, and the CI (HCT-116 [1]) was 0.932, the CI (HCT-116 [2]) was 0.823 and the CI (HCT-116 [3]) was 0.545. The Activity (HCT-116 [4]) was “inactive”, the CI (HCT-116 [5]) was 0.967 and the CI (HCT-116 [6]) was 0.879. For the same molecule, the Activity (HCT-116 [7]) was 19.7%, the Activity [8] was “inactive” and the Activity (HCT-116 [9]) was “Active”. The CI (HCT-116 [10]) was 0.756, the CI (HCT-116 [11]) was 0.538 and the Activity [12] was “Active”. The Activity (HCT-116 [13]) was “inactive”, the Activity (HCT-116 [14]) was “Active” and the DC50 [15] was 0.161 µM. It also gave an Emax [16] of 84.8%, a CI (HCT-116 [17]) of 0.698 and a CI (HCT-116 [18]) of 1.003. For the same molecule, the Activity [19] was “inactive”, the Emax [20] was 86.2% and the Activity (HCT-116 [21]) was “Active”. For the same molecule, the Activity (HCT-116 [22]) was “Active”, the Activity (HCT-116 [23]) was 2.01% and the CI (HCT-116 [24]) was 0.753. It also gave a CI (HCT-116 [25]) of 1.092.
